One assay concerns MC-38 tumours. Description: Intratumoural luciferase mRNA delivery with PCI (blue light), luciferase enzymatic assay on tumour homogenates. The assay is classed as in vivo, mice. Conditions: Example 3, 6 min blue light. As for the experimental part:
An experiment was performed to study in vivo naked mRNA delivery to colon adenocarcinoma tumours (MC-38 tumours) in mice.
The experiment was performed with Luciferase-encoding modified mRNA, and the effect was analysed by an enzymatic luciferase assay on tumour extracts, with tumours harvested 20 hours after illumination. Each animal had two tumours (A and B) that were injected and analysed separately.
TriLink modified luciferase mRNA (T14-GU03A), 3 μg was used per injection.
Female mice of the strain C57BL/6 (Charles River) were be used. Animal identification and conditions of housing, acclimatisation, environment, diet and water was in accordance with the current Standard Operating Procedures at the animal facilities at Oslo University Hospital—The Radium Hospital.
The animals were inoculated with 500 000 MC-38 cells per tumour, 2 tumours per animal. The size of the tumours on mRNA injection was 60-150 mm^3. Animals were randomized by tumour volume, animals with tumour ulcers were excluded. mRNA was mixed with TPCS2a and the mixture (25 μl) was injected into the tumours at time 0. The pure (naked) mRNA was injected at the same time point.
The injections were performed with gas anesthesia (Sevoflurane). The aim of the injection was to deposit a solution in the centre of the outer third of the tumour, avoiding the central core of the tumour. Insulin syringes were used to deliver the 25 μl of treatment.
The tumours in the PCI groups were illuminated (blue light from LumiSource) 60 min after mRNA/TPCS2a injection according to Table 5. The day after mRNA administration (i.e. around 20 hours after illumination) animals were killed and all tumours were removed and frozen for later homogenization and enzymatic assay for luciferase (Luciferase Assay System, Promega, Cat #E1500). After homogenization the amount of protein in the tumour extract was determined using the RC-DC Protein Assay (Bio-Rad Hercules, California, USA) and the luciferase enzymatic activity per mg tumour was calculated.

In the next assay the test system is TC-1 tumours. Kind of assay: Intratumoural luciferase mRNA delivery with PCI (red light 652 nm), luciferase enzymatic assay on tumour homogenates. The note with it: Example 2. The format is in vivo, mice. On the procedure:
An experiment was performed to study in vivo naked mRNA delivery to TC-1 tumours (model for HPV-induced tumours) in mice.
In these experiments the TC-1 tumour model for HPV-induced cancer was employed. mRNA delivery was assessed by performing a luciferase enzymatic assay on homogenates from tumours harvested the day after illumination. Red light laser light illumination with a wavelength of 652 nm was used. The experiment was performed as follows: • Luciferase mRNA (L-7202 CleanCap™ FLuc mRNA (5moU)) from TriLink, 3 μg per injection) was mixed with TPCS2a and injected into the tumours in an injection volume of 20 μl. • 60 min after mRNA/TPCS2a injection the tumours were illuminated with different doses of red laser light (at 652 nm) for 12.5-500 seconds. • The day after illumination, all tumours were removed and frozen for later enzymatic assay for luciferase (Luciferase Assay System, Promega, Cat #E1500). • The protein content in the samples was measured with the RC DC Protein Assay kit (BioRad) assay, and the relative amounts of active luciferase in each sample was calculated as Relative Luminescence Units (RLU: Arbitrary units) per mg of protein.

Another assay deals with skin of mice. Description: Intradermal naked luciferase mRNA delivery with PCI, bio-luminescence imaging (IVIS) of injection sites. The format is in vivo. Conditions: for effect on mRNA delivery (fold increase in luminescence vs mRNA only): Example 1C, 2 μg unmodified mRNA L-6307, 0.003 μg TPCS2a. As for the experimental part: Firefly luciferase mRNA (1921 nucleotides in length; L-6107—with modified bases 5-methylcytidine (5meC) and pseudo-uridine (ψ); L-6307—unmodified mRNA; L-7202—with modified base 5-methoxyuridine (5moU), and with the TriLink CleanCap™ modification as the capping structure, purchased from TriLink Biotechnologies, San Diego, USA) and TPCS2a (Amphinex®, PCI Biotech AS, Norway) were mixed in a volume of 20 μl PBS and the mixture was injected into the skin of mice at time 0. Different doses were used in different experiments, and in control samples no TPCS2a was used. Injections were performed in 4 sites (A-D) per mouse (see FIG. 1 and diagram and table below), and the injection sites were illuminated in general 60 min after mRNA/TPCS2a injection. With this set-up the two sites in each animal not receiving TPCS2a act as controls internal to each animal. This is useful for being able to correct for possible differences between animals e.g. in the injection and distribution of luciferin prior to the bio-luminescence imaging.
Injection sites were illuminated with blue light (wavelength between 400 and 540 nm with a peak at around 435 nm) from the LumiSource illumination device.
4-6 or 20-24 hours after illumination luciferase activity at the injection sites was analysed by bio-luminescence imaging in the IVIS instrument (IVIS Spectrum, model 124375R from PerkinElmer). Pictures were taken 20 min after luciferin injection, and bio-luminescence in a defined region-of-interest (ROI) around each injection site was quantified. The procedure for IVIS imaging was as follows: i) The mice were given an intraperitoneal injection of 3 mg D-Luciferin (200 μl of 15 mg/ml stock).
ii) After approximately 10 min, the mice were anaesthetized by a subcutaneous injection of Zoletil (10-15 mg/kg xylasin, 5-10 mg/kg butorphanol and 15-20 mg/kg Zoletil (containing zolazepam and tiletamine)).
iii) 20 min after D-luciferin injection, mice were placed in the IVIS instrument and pictures were taken with automatic exposure of Luminescence (Andor camera IS0825R4582; iKon Living Image version: 4.5.2.18424. Binning factor: 8; Excitation filter: Block; Emission filter: Open; f Number: 1)
iv) The bio-luminescence in ROIs covering each injection site was measured to quantify luciferase expression. The detailed set-up of a typical experiment (Example 1) can be found in Table 1.
Animals were injected by mRNA and TPCS2a as described under Methods and treated as described in Table 1 with the sites shown in FIG. 8.
3 μg mRNA and different amounts of TPCS2a (ranging from 0.0003 μg to 10 μg) were mixed and injected into the skin of mice as described under Methods. 60 min after the injections the mice were illuminated for 6 (in general) or 3 min (in one case) with blue light from the LumiSource illumination device. The animals were injected with luciferin and imaged in the IVIS instrument as described under Methods. The luminescence in defined regions of interest round the injection sites was assessed in the IVIS instrument. For each animal the luminescence at the sites receiving mRNA+TPCS2a was compared to the luminescence at the sites receiving mRNA only, and the fold increase (FI) in luminescence at the TPCS2a injected sites in each animal was calculated by the formula FI=luminescencemRNA+TPCS2a/luminescencemRNA only. […]
Lipofectamine is a very efficient transfection agent commonly used for delivery of mRNA and other nucleic acids; and it has also been used for mRNA delivery in vivo (Zangi et al., 2013, supra). However several type of toxic reactions have been observed with in vivo use of lipofectamine, limiting the possibilities for clinical use of this transfection agent. […]

Results on one substance are retold here after US12263182B2, “Method of introducing an mRNA molecule into a cell” (PCI Biotech AS, priority 2018, dated 2025).

As for “tetraphenyl chlorin disulfonate [TPCS2a]”, the “effect on luciferase mRNA delivery (luciferase enzymatic activity in tumour homogenates, single tumours)” value with MC-38 tumours (3 μg mRNA + 0.001-0.01 μg TPCS2a intratumoural, harvested 20 h after illumination) was “substantially enhanced luciferase mRNA delivery”. The “PCI-induced improvement in mRNA delivery compared to mRNA without PCI (group means)” value is “about 3 times” in the assay on MC-38 tumours (0.003/6 min group: 3 μg mRNA + 0.003 μg TPCS2a) and “about 10 times” in the assay on MC-38 tumours (0.01/6 min group: 3 μg mRNA + 0.01 μg TPCS2a). Besides, the “optimum illumination dose for PCI-enhanced mRNA delivery” value with TC-1 tumours (3 μg mRNA + 0.1 μg TPCS2a, red light 652 nm) is on record as “around 2 J/cm^2”. Besides, the “effect on mRNA delivery versus mRNA alone (RLU/mg protein)” value with TC-1 tumours (3 μg mRNA + 0.1 μg TPCS2a, without illuminating the tumours) was “did not seem to enhance mRNA delivery significantly”. The “effect on mRNA delivery and translation (RLU/mg protein)” value in the assay with TC-1 tumours (3 μg mRNA L-7202 + 0.1 μg TPCS2a intratumoural, red light 0.1 to 4 J/cm^2, tumours harvested day after illumination) is “strong enhancement of mRNA delivery and translation”. Besides, the “enhancement of mRNA delivery by PCI, mean of all animals versus mRNA only” value with skin of mice (Example 1A, 12 sites each, 2 μg mRNA + 0.003 μg TPCS2a intradermal, 6 min blue light) was “about 3 times”. The “mean bio-luminescence for the PCI treated sites versus the mRNA only sites” value in the assay on skin of mice (Example 1A, animal 6, 2 μg luciferase mRNA L-6107 + 0.003 μg TPCS2a intradermal, 6 min blue light, imaged 4 h after illumination) was “more than 5 times”. Besides, in the assay with skin of mice (Example 1B, 3 μg mRNA, 0.003 μg TPCS2a, 6 and 3 min blue light), the “effect on mRNA delivery, 6 versus 3 min illumination” value is recorded as “comparable enhancement of mRNA delivery”. In addition, the “effect on mRNA delivery (luciferase expression, fold increase vs mRNA only)” value in the assay on skin of mice (Example 1B, 3 μg mRNA, TPCS2a dose of 0.0003 μg, blue light) is reported as “improved mRNA delivery”; in the assay with skin of mice (Example 1B, 3 μg mRNA, TPCS2a doses above 0.3 μg (PCI10, PCI3, PCI1), 6 min blue light), “strongly detrimental effect on mRNA delivery”; in the assay with skin of mice (Example 1B, 3 μg mRNA, TPCS2a doses of 0.01 μg and below, 6 min blue light) it was “significant enhancement of mRNA delivery”; with skin of mice (Example 1B, 3 μg mRNA, TPCS2a doses of 0.3 to 0.03 μg, 6 min blue light) it was “did not alter luciferase expression significantly”. Further, the “effect on mRNA delivery (fold increase in luminescence vs mRNA only)” value in the assay with skin of mice (0.5 min blue light) and in the assay on skin of mice (4 min blue light) was “enhanced mRNA delivery” each time. In addition, in the assay with skin of mice (Example 1D, 2 μg mRNA L-7202 intradermal, 0.003 μg TPCS2a, 6 min blue light, imaged 4 h after illumination, comparator 6 μl lipofectamine), the “improvement of mRNA translation over what was achieved with lipofectamine” value is around 4 times.
